Results published in patent US20240109918A1, “HETEROCYCLIC COMPOUNDS AND USES THEREOF” (Kumquat Biosciences Inc., priority 2022, published 2024).
pIC50: −log10 of the molar value.

Assays:
[1] = target: T1, KRASG12D (Homo sapiens, UniProt P01116, G12D); assay: Bio-Biochem-PPI-HTRF Ras-SOS1 interaction assay (KRAS G12D); type: biochemical; details: 5 nM
T1 construct: made in house; host or cells: E. coli BL21 (DE3)
In short: (§1)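 GST-tagged K-Ras (wt or G12D) with anti-GST-Eu(K) donor was mixed with His-hSOS1 and anti-6His-XL665 acceptor in HEPES pH 7.4/NaCl/DTT/BSA/Igepal buffer, with compound in duplicate from 10 μM down to 0.01 μM. After about 10 min or longer, HTRF 665/620 nm ratio gave IC50.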

[2] = target: T2, KRASwt (Homo sapiens, UniProt P01116); assay: Bio-Biochem-PPI-HTRF Ras-SOS1 interaction assay (KRAS wt); type: biochemical; details: 5 nM
T2 construct: made in house; host or cells: E. coli BL21 (DE3)
In short: as §1

T1 sequence (P01116 1-188 isoform P01116-2 G12D): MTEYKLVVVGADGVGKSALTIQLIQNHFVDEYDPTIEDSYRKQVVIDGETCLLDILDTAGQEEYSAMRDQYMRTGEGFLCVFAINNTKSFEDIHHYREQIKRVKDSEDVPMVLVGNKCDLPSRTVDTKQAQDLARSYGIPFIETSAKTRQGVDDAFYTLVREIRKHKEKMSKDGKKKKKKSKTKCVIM
T2 sequence (P01116 1-188 isoform P01116-2): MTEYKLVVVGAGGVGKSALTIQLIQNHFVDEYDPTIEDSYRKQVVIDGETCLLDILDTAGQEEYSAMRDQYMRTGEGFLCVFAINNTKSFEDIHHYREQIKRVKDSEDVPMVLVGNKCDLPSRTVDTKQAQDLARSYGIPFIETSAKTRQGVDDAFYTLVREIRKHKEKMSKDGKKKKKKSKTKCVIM

Row | SMILES | pIC50 [1] | pIC50 [2]
1 | CN(C)C/C=C/C(=O)N1CC2(CCCN(c3nc(OC[C@@]45CCCN4C[C@H](F)C5)nc4c(F)c(-c5ccc(F)c6sc(N)nc56)c(Cl)cc34)C2)C1 [compound 181, (E)-1-(6-(7-(2-amino-7-fluorobenzo[d]thiazol-4-yl)-6-chloro-8-fluoro-2-(((2R,7aS)-2-fluorotetrahydro-1H-pyrrolizin-7a(5H)-yl)methoxy)quinazolin-4-yl)-2,6-diazaspiro[3.5]nonan-2-yl)-4-(dimethylamino)but-2-en-1-one] | > 5.30 | > 5.30
2 | Cc1ccnc(C(C)C)c1-n1c(=O)nc(N2CCOC3(CNC3)C2)c2cc(F)c(-c3ccc(F)c4sc(N)c(C#N)c34)nc21 [compound 108, 2-amino-7-fluoro-4-(6-fluoro-1-(2-isopropyl-4-methylpyridin-3-yl)-2-oxo-4-(5-oxa-2,8-diazaspiro[3.5]nonan-8-yl)-1,2-dihydropyrido[2,3-d]pyrimidin-7-yl)benzo[b]thiophene-3-carbonitrile] | ≤ 5.30 | ≤ 5.30
3 | N#Cc1c(N)sc2c(F)ccc(-c3c(Cl)cc4c(N5CCCCC6(CN(C(=O)c7ccnn7CCC(F)F)C6)C5)nc(OC[C@@]56CCCN5C[C@H](F)C6)nc4c3F)c12 [compound 341, 2-amino-4-(6-chloro-4-(2-(1-(3,3-difluoropropyl)-1H-pyrazole-5-carbonyl)-2,6-diazaspiro[3.6]decan-6-yl)-8-fluoro-2-(((2R,7aS)-2-fluorotetrahydro-1H-pyrrolizin-7a(5H)-yl)methoxy)quinazolin-7-yl)-7-fluorobenzo[b]thiophene-3-carbonitrile] | > 5.30 | > 5.30
4 | N#Cc1c(N)sc2c(F)ccc(-c3c(Cl)cc4c(N5CCCCC6(CN(C(=O)C7C8COCC87)C6)C5)nc(OC[C@@]56CCCN5C[C@H](F)C6)nc4c3F)c12 (stereo partly drawn) [compound 238, 4-(4-(2-(3-oxabicyclo[3.1.0]hexane-6-carbonyl)-2,6-diazaspiro [3.6]decan-6-yl)-6-chloro-8-fluoro-2-(((2R,7aS)-2-fluorotetrahydro-1H-pyrrolizin-7a(5H)-yl)methoxy)quinazolin-7-yl)-2-amino-7-fluorobenzo[b]thiophene-3-carbonitrile] | > 5.30 | > 5.30
5 | N#Cc1c(N)sc2c(F)ccc(-c3c(Cl)cc4c(N5CCCCC6(CN(C(=O)C78CC(C(F)(F)F)(C7)C8)C6)C5)nc(OC[C@@]56CCCN5C[C@H](F)C6)nc4c3F)c12 [compound 237, 2-amino-4-(6-chloro-8-fluoro-2-(((2R,7aS)-2-fluorotetrahydro-1H-pyrrolizin-7a(5H)-yl)methoxy)-4-(2-(3-(trifluoromethyl)bicyclo[1.1.1]pentane-1-carbonyl)-2,6-diazaspiro[3.6]decan-6-yl)quinazolin-7-yl)-7-fluorobenzo[b]thiophene-3-carbonitrile] | > 5.30 | > 5.30
6 | N#Cc1c(N)sc2c(F)ccc(-c3c(Cl)cc4c(N5CC6(CN(C(=O)C7CC7(F)F)C6)C5)nc(OC[C@@]56CCCN5C[C@H](F)C6)nc4c3F)c12 (stereo partly drawn) [compound 219, 2-amino-4-(6-chloro-4-(6-(2,2-difluorocyclopropane-1-carbonyl)-2,6-diazaspiro[3.3]heptan-2-yl)-8-fluoro-2-(((2R,7aS)-2-fluorotetrahydro-1H-pyrrolizin-7a(5H)-yl)methoxy)quinazolin-7-yl)-7-fluorobenzo[b]thiophene-3-carbonitrile] | > 5.30 | > 5.30
7 | N#Cc1c(N)sc2c(F)ccc(-c3c(Cl)cc4c(N5CC(F)CCC6(CN(C(=O)[C@@H]7CC7(F)F)C6)C5)nc(OC[C@@]56CCCN5C[C@H](F)C6)nc4c3F)c12 (stereo partly drawn) [compound 269, 2-amino-4-(6-chloro-4-(2-((S)-2,2-difluorocyclopropane-1-carbonyl)-8-fluoro-2,6-diazaspiro[3.6]decan-6-yl)-8-fluoro-2-(((2R,7aS)-2-fluorotetrahydro-1H-pyrrolizin-7a(5H)-yl)methoxy)quinazolin-7-yl)-7-fluorobenzo[b]thiophene-3-carbonitrile] | > 5.30 | > 5.30
8 | CC1(C(=O)N2CC3(CCCCN(c4nc(OC[C@@]56CCCN5C[C@H](F)C6)nc5c(F)c(-c6ccc(F)c7sc(N)c(C#N)c67)c(Cl)cc45)C3)C2)CC1 [compound 228, 2-amino-4-(6-chloro-8-fluoro-2-(((2R,7aS)-2-fluorotetrahydro-1H-pyrrolizin-7a(5H)-yl)methoxy)-4-(2-(1-methylcyclopropane-1-carbonyl)-2,6-diazaspiro[3.6]decan-6-yl)quinazolin-7-yl)-7-fluorobenzo[b]thiophene-3-carbonitrile] | > 5.30 | > 5.30
9 | N#Cc1c(N)sc2c(F)ccc(-c3c(Cl)cc4c(N5CCCCC6(CN(C(=O)c7ccnn7C(F)(F)F)C6)C5)nc(OC[C@@]56CCCN5C[C@H](F)C6)nc4c3F)c12 [compound 323, 2-amino-4-(6-chloro-8-fluoro-2-(((2R,7aS)-2-fluorotetrahydro-1H-pyrrolizin-7a(5H)-yl)methoxy)-4-(2-(1-(trifluoromethyl)-1H-pyrazole-5-carbonyl)-2,6-diazaspiro[3.6]decan-6-yl)quinazolin-7-yl)-7-fluorobenzo[b]thiophene-3-carbonitrile] | > 5.30 | > 5.30
10 | N#Cc1c(N)sc2c(F)ccc(-c3c(Cl)cc4c(N5CCCCC6(CN(C(=O)NC7(C(F)(F)F)CC7)C6)C5)nc(OC[C@@]56CCCN5C[C@H](F)C6)nc4c3F)c12 [compound 289, 6-(7-(2-amino-3-cyano-7-fluorobenzo[b]thiophen-4-yl)-6-chloro-8-fluoro-2-(((2R,7aS)-2-fluorotetrahydro-1H-pyrrolizin-7a(5H)-yl)methoxy)quinazolin-4-yl)-N-(1-(trifluoromethyl)cyclopropyl)-2,6-diazaspiro[3.6]decane-2-carboxamide] | > 5.30 | > 5.30

Results, then the compound that gave them:

Row | pIC50 [1] | pIC50 [2] | SMILES
11 | > 5.30 | > 5.30 | CC(F)(F)C(=O)N1CC2(CCCCN(c3nc(OC[C@@]45CCCN4C[C@H](F)C5)nc4c(F)c(-c5ccc(F)c6sc(N)c(C#N)c56)c(Cl)cc34)C2)C1 [compound 213, 2-amino-4-(6-chloro-4-(2-(2,2-difluoropropanoyl)-2,6-diazaspiro[3.6]decan-6-yl)-8-fluoro-2-(((2R,7aS)-2-fluorotetrahydro-1H-pyrrolizin-7a(5H)-yl)methoxy)quinazolin-7-yl)-7-fluorobenzo[b]thiophene-3-carbonitrile]
12 | > 5.30 | > 5.30 | N#Cc1c(N)sc2c(F)ccc(-c3c(Cl)cc4c(N5CCCC6(CN(C(=O)N7CC[C@H]7C#N)C6)C5)nc(OC[C@@]56CCCN5C[C@H](F)C6)nc4c3F)c12 [compound 211, (2S)-1-(6-(7-(2-amino-3-cyano-7-fluorobenzo[b]thiophen-4-yl)-6-chloro-8-fluoro-2-(((2R,7aS)-2-fluorotetrahydro-1H-pyrrolizin-7a(5H)-yl)methoxy)quinazolin-4-yl)-2,6-diazaspiro[3.5]nonane-2-carbonyl)azetidine-2-carbonitrile]
13 | > 5.30 | > 5.30 | CC1(C(=O)N2CC3(CCCCN(c4nc(OC[C@@]56CCCN5C[C@H](F)C6)nc5c(F)c(-c6ccc(F)c7sc(N)c(C#N)c67)c(Cl)cc45)C3)C2)CC1(F)F (stereo partly drawn) [compound 277, 2-amino-4-(6-chloro-4-(2-(2,2-difluoro-1-methylcyclopropane-1-carbonyl)-2,6-diazaspiro[3.6]decan-6-yl)-8-fluoro-2-(((2R,7aS)-2-fluorotetrahydro-1H-pyrrolizin-7a(5H)-yl)methoxy)quinazolin-7-yl)-7-fluorobenzo[b]thiophene-3-carbonitrile]
14 | > 5.30 | > 5.30 | CN(C(=O)N1CC2(CCCCN(c3nc(OC[C@@]45CCCN4C[C@H](F)C5)nc4c(F)c(-c5ccc(F)c6sc(N)c(C#N)c56)c(Cl)cc34)C2)C1)C1CC1 [compound 234, 6-(7-(2-amino-3-cyano-7-fluorobenzo[b]thiophen-4-yl)-6-chloro-8-fluoro-2-(((2R,7aS)-2-fluorotetrahydro-1H-pyrrolizin-7a(5H)-yl)methoxy)quinazolin-4-yl)-N-cyclopropyl-N-methyl-2,6-diazaspiro[3.6]decane-2-carboxamide]
15 | > 5.30 | > 5.30 | N#Cc1c(N)sc2c(F)ccc(-c3c(Cl)cc4c(N5CCCCC6(CN(C(=O)C7C8CCOC87)C6)C5)nc(OC[C@@]56CCCN5C[C@H](F)C6)nc4c3F)c12 (stereo partly drawn) [compound 270, 4-(4-(2-(2-oxabicyclo[3.1.0]hexane-6-carbonyl)-2,6-diazaspiro [3.6]decan-6-yl)-6-chloro-8-fluoro-2-(((2R,7aS)-2-fluorotetrahydro-1H-pyrrolizin-7a(5H)-yl)methoxy)quinazolin-7-yl)-2-amino-7-fluorobenzo[b]thiophene-3-carbonitrile]
